Test results: US10369123B2, “Perk activator for the treatment of neurodegenerative diseases” (DEUTSCHES ZENTRUM FÜR NEURODEGENERATIVE ERKRANKUNGEN E.V. …, priority 2014, dated 2019)

Tests used:
[1] = system: tau; assay: Western blot of tau phosphorylation, 4R-tau overexpression model; assay type: cell-based, human; settings: 4R-tau overexpressing lentivirus 8 days + PERK activator
Method: (§1) Nunc™ Nunclon™ Delta 6-well (for protein and mRNA) or 48-well (for cell assays) plates (Thermo Fisher Scientific, Waltham, Mass., USA) were coated with 100 μg/ml poly-L-lysine (Sigma-Aldrich, St. Louis, Mo., USA) and 5 μg/ml fibronectin (Sigma-Aldrich). LUHMES (Lund Human Mesencephalic) cells, derived from human embryonic ventral mesencephalic cells by conditional immortalization (Tet-off v-myc over-expression) were seeded out in a concentration of 130,000 cells/cm^2 to achieve a confluence of 50%. They were then differentiated for 8 days in a medium of DMEM/F12 (Sigma-Aldrich), 1 μg/ml tetracycline, […] and 490 μg/ml dbcAMP into post-mitotic neurons with a dopaminergic phenotype (Lotharius et al. 2005).
(§2) For all experiments with annonacin, the medium was replaced during the intoxication period with new medium containing glucose levels reduced to 250 μM, i.e. the physiological concentration in the human brain.
Concentrated lentiviral particles were titrated by transducing LUHMES cells with different dilutions at 6 hours after initiating differentiation. The lowest dilution at which at least 90% of cells expressed the transgene (as determined by immunohistochemistry of the cells fixed on day 2 post differentiation) was chosen for subsequent experiments. For these, concentrated lentiviral particles were again added into the medium on day 0, 6 hours after initiating differentiation.
Protein was extracted by scraping the cells from the culture plate with Mammalian Protein Extraction Reagent (M-PER, Thermo Fisher Scientific) and 1× cOmplete Protease Inhibitor Cocktail Tablets (Hoffmann-La Roche, Basel, Switzerland) and 1× PhosSTOP Phosphatase Inhibitor Cocktail Tablets (Hoffmann-La Roche). For pNRF2 blots, cells were extracted with 2% SDS tris-buffer instead of M-PER in order to obtain whole cell extracts and not to lose the nuclear fraction. […] Protein concentrations were determined using the BCA kit (Thermo Fisher Scientific) by heating the samples at 60° C. for 30 min and measuring the absorption on the NanoDrop 2000c Spectrophotometer (Thermo Fisher Scientific). […]

[2] = system: 3R/4R MAPT mRNA, splicing factor SRSF2; assay: Quantitative PCR of MAPT isoforms and splicing factors, annonacin model; assay type: cell-based, human; settings: annonacin + PERK activator
Method: as §1, §2
RNA from human tissue samples was extracted by grinding the tissue in liquid nitrogen to a powder and then dissolving it in the RA1 buffer supplied as part of the NucleoSpin® RNA (Macherey Nagel) RNA extraction kit+1% (v/v) 2-mercaptoethanol (Sigma-Aldrich). RNA from cells was extracted by scraping the cells from the culture plate with RA1 buffer+1% (v/v) 2-mercaptoethanol. The remaining extraction procedure was according to the manufacturer's instructions for the NucleoSpin® RNA kit. RNA concentrations were determined using the NanoDrop 2000c Spectrophotometer. The RNA was then transcribed into cDNA with the iScript™ cDNA Synthesis Kit (BioRad) using the manufacturer's instructions. Real-Time PCR was performed on the Applied Biosystems® StepOnePlus™ (Life Technologies) system using TagMan® Universal Master Mix II and TaqMan® primers against total MAPT, MAPT 3R, MAPT 4R, EIF2A, EI2AK3 and ATF4. POL2A and PSCM1 served as reference targets as they were determined to be the most stably expressed across experimental conditions. The results were analyzed using the StepOne Plus software (Life Technologies) and Qbase software (Biogazelle) and were then graphically and statistically analyzed with Prism 6 (GraphPad Software). Absolute quantification was performed by creating a standard curve with plasmids containing either the 2N3R or the 2N4R spliced variant of MAPT (see Table 2). The absolute quantity was computed by deriving the relationship between CT values and absolute quantity with the StepOne Plus software.

Compound: CCN(CC)CCC(=O)N1N=C(c2c(-c3ccccc3)c3cc(Br)ccc3[nH]c2=O)CC1c1ccc(Br)cc1 (centres unmarked) [CCT020312, 6-bromo-3-[5-(4-bromo-phenyl)-1-(3-diethylamino-propionyl)-4,5-dihydro-1H-pyrazol-3-yl]-4-phenyl-1H-quinolin-2-one]
- AD2-positive tau [1]: not altered
- CP13 (Ser-202) phosphorylated tau [1]: significantly reduced
- HT7-positive tau [1]: not altered
- annonacin-induced increase of splicing factor SRSF2 [2]: significantly reduced
- 4R-tau mRNA amount ([2]; 48 h): reduced
